Assay results as given in article PMC12221356, “A repertoire of visible light–sensitive opsins in the deep-sea hydrothermal vent shrimp Rimicaris hybisae” (The Journal of Biological Chemistry, 2025).
Substitutions are numbered along the chain they refer to.

Columns and labels:
[1] = molecular target: T1, RhOpn5 (Rimicaris hybisae, UniProt Z9SF72QZI5); assay: UV-visible absorption spectroscopy of purified pigment; assay type: binding; details: covalent (Schiff base, Lys296); pH 8.0 and 6.5; 0 °C; mutation in bovine rhodopsin numbering
T1 construct: 178 C-terminal residues truncated, C-terminal Rho1D4 tag (ETSQVAPA), human-codon optimized, HEK293T; transcriptome reads SRA SRP339896
T1 sequence (Z9SF72QZI5 1-407 E336Q): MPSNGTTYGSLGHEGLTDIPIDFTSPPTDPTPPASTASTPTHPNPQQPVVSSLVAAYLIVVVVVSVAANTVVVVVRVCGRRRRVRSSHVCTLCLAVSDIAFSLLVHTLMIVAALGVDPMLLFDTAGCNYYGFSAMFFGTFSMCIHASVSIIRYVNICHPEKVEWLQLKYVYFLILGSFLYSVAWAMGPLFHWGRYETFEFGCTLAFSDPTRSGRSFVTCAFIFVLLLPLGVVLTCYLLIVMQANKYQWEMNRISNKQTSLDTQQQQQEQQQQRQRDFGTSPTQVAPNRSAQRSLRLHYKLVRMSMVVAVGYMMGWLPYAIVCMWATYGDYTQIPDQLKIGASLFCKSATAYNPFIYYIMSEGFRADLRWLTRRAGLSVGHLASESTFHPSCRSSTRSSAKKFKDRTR

[2] = molecular target: T2, RhPeropsin (Rimicaris hybisae, UniProt Z9VFR8UU34); assay: HPLC of retinal isomers after irradiation; assay type: biochemical; details: covalent (Schiff base, Lys296); photoproduct under yellow light (>500 nm); 0 °C
T2 construct: C-terminal Rho1D4 tag (ETSQVAPA), human-codon optimized, expressed in HEK293T, no truncation stated; transcriptome reads SRA SRP339896
T2 sequence (Z9VFR8UU34 1-341): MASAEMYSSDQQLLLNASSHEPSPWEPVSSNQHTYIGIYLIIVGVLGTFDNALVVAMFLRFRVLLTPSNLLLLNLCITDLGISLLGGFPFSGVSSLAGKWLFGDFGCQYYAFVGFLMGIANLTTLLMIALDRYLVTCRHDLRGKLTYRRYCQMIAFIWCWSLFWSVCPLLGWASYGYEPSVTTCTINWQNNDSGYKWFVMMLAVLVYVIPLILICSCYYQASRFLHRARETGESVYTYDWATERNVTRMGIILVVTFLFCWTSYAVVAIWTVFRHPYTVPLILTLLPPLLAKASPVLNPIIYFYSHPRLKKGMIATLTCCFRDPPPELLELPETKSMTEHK

[3] = molecular target: T3, RhOpn5 (Rimicaris hybisae, UniProt Z9SF72QZI5); assay: absorption spectroscopy and HPLC of retinal in purified pigment; assay type: binding; details: covalent (Schiff base, Lys296); dark state; 0 °C
T3 construct: 178 C-terminal residues truncated, C-terminal Rho1D4 tag (ETSQVAPA), human-codon optimized, HEK293T; transcriptome reads SRA SRP339896
T3 sequence (Z9SF72QZI5 1-407): T1 sequence (Z9SF72QZI5 1-407 E336Q) with Q336E

[4] = molecular target: T4, RhOpn5 (Rimicaris hybisae, UniProt Z9SF72QZI5, D98N, form not given); assay: UV-visible absorption spectroscopy of purified pigment; assay type: binding; details: covalent (Schiff base, Lys296); pH 8.0 and 6.5; 0 °C; mutation in bovine rhodopsin numbering; counterion mutant
T4 construct: 178 C-terminal residues truncated, C-terminal Rho1D4 tag (ETSQVAPA), human-codon optimized, HEK293T; transcriptome reads SRA SRP339896
T4 sequence (Z9SF72QZI5 1-407 D98N): T1 sequence (Z9SF72QZI5 1-407 E336Q) with D98N, Q336E

[5] = molecular target: T5, RhOpn5 (Rimicaris hybisae, UniProt Z9SF72QZI5, E196Q, form not given); assay: as above; assay type: binding; details: covalent (Schiff base, Lys296); pH 8.0 and 6.5; 0 °C; mutation in bovine rhodopsin numbering
T5 construct: 178 C-terminal residues truncated, C-terminal Rho1D4 tag (ETSQVAPA), human-codon optimized, HEK293T; transcriptome reads SRA SRP339896
T5 sequence (Z9SF72QZI5 1-407 E196Q): T1 sequence (Z9SF72QZI5 1-407 E336Q) with E196Q, Q336E

[6] = molecular target: T6, RhOpn5 (Rimicaris hybisae, UniProt Z9SF72QZI5, E199Q, form not given); assay: as above; assay type: binding; details: covalent (Schiff base, Lys296); pH 8.0 and 6.5; 0 °C; mutation in bovine rhodopsin numbering
T6 construct: 178 C-terminal residues truncated, C-terminal Rho1D4 tag (ETSQVAPA), human-codon optimized, HEK293T; transcriptome reads SRA SRP339896
T6 sequence (Z9SF72QZI5 1-407 E199Q): T1 sequence (Z9SF72QZI5 1-407 E336Q) with E199Q, Q336E

[7] = molecular target: T3, RhOpn5; assay: absorption spectroscopy and HPLC of retinal in purified pigment; assay type: biochemical; details: covalent (Schiff base, Lys296); photoproduct under yellow light (>480 nm); 0 °C
[8] = molecular target: T2, RhPeropsin; assay: as above; assay type: biochemical; details: covalent (Schiff base, Lys296); dark state; photoisomerized under yellow light (>500 nm); 0 °C

SMILES | UV-visible absorption spectroscopy of purified pigment [1] | HPLC of retinal isomers after irradiation [2] | absorption spectroscopy and HPLC of retinal in purified pigment [3] | UV-visible absorption spectroscopy of purified pigment [4] | UV-visible absorption spectroscopy of purified pigment [5] | UV-visible absorption spectroscopy of purified pigment [6] | absorption spectroscopy and HPLC of retinal in purified pigment [7] | absorption spectroscopy and HPLC of retinal in purified pigment [8]
CC1=C(/C=C/C(C)=C/C=C\C(C)=C\C=O)C(C)(C)CCC1 [11-cis-retinal] | the E179Q, E182Q, and E286Q mutants did not show pH-dependent spectral changes | RhPeropsin converts all-trans-retinal to 11-cis-retinal upon visible light absorption | RhOpn5 forms a blue light–sensitive pigment binding 11-cis-retinal in the resting state | the D83N mutant showed a significant pH-dependent change, with a small peak in the visible | the E179Q, E182Q, and E286Q mutants did not show pH-dependent spectral changes | the E179Q, E182Q, and E286Q mutants did not show pH-dependent spectral changes |  | 
CC1=C(/C=C/C(C)=C/C=C/C(C)=C/C=O)C(C)(C)CCC1 [all-trans-retinal] |  |  |  |  |  |  | accompanied by the conversion from 11-cis- to all-trans-retinal | RhPeropsin exclusively binds all-trans-retinal in the dark and produces 11-cis-retinal from all-trans-retinal
